The results in this text go back to ChEMBL document CHEMBL3132769, “Fragment growing to retain or alter the selectivity of anchored kinase hinge-binding fragments” (Medchemcomm, 2014).

Assay [1] deals with Cyclin-dependent kinase 2 (Homo sapiens) (UniProt P24941). Briefly: Inhibition of human full length CDK2 expressed in baculovirus assessed as substrate phosphorylation using fluorescence-labelled peptides as substrate at 0.2 uM after 90 mins by microfluidic peptide phosphorylation assay.
The target of assay [2] is RAC-alpha serine/threonine-protein kinase (Homo sapiens) (UniProt P31749). Briefly: Inhibition of human AKT1 catalytic domain expressed in baculovirus assessed as substrate phosphorylation using fluorescence-labelled peptides as substrate at 0.2 uM after 90 mins by microfluidic peptide phosphorylation assay.
The target in assay [3] is Protein kinase C gamma type (Homo sapiens) (UniProt P05129). Briefly: Inhibition of human truncated PKC gamma expressed in baculovirus assessed as substrate phosphorylation using fluorescence-labelled peptides as substrate at 0.2 uM after 90 mins by microfluidic peptide phosphorylation assay.
In assay [4] the target is Fibroblast growth factor receptor 4 (Homo sapiens) (UniProt P22455). As to the kind of experiment: Inhibition of human FGFR4 catalytic domain expressed in baculovirus assessed as substrate phosphorylation using fluorescence-labelled peptides as substrate at 420 uM after 90 mins by microfluidic peptide phosphorylation assay.
Chain of Fibroblast growth factor receptor 4 (Homo sapiens) (P22455 22-802 limits assumed): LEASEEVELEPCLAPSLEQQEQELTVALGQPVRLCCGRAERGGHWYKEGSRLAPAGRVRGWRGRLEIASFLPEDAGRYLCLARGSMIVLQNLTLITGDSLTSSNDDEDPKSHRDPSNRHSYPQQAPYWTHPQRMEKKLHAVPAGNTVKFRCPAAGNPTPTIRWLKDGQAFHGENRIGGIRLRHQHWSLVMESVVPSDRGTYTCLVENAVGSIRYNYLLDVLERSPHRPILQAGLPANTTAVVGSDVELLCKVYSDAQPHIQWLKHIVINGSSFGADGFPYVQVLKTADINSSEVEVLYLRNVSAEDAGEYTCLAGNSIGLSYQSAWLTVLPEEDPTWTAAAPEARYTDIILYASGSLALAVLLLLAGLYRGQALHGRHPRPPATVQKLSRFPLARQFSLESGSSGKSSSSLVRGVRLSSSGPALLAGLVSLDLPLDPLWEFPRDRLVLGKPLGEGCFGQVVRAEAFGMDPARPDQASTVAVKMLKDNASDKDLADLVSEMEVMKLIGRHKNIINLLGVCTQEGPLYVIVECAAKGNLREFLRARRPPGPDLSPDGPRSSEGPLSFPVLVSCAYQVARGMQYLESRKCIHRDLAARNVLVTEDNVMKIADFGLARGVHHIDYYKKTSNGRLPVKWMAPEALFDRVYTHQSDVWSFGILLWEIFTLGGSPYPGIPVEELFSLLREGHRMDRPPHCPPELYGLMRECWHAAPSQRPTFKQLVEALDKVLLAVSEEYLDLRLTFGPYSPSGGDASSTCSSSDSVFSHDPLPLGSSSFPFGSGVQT
For assay [5], the target named is Calcium/calmodulin-dependent protein kinase type II subunit delta (Homo sapiens) (UniProt Q13557). As to the kind of experiment: Inhibition of human full length CAMK2D expressed in baculovirus assessed as substrate phosphorylation using fluorescence-labelled peptides as substrate at 420 uM after 90 mins by microfluidic peptide phosphorylation assay.
Chain of Calcium/calmodulin-dependent protein kinase type II subunit delta (Homo sapiens) (Q13557 whole entry): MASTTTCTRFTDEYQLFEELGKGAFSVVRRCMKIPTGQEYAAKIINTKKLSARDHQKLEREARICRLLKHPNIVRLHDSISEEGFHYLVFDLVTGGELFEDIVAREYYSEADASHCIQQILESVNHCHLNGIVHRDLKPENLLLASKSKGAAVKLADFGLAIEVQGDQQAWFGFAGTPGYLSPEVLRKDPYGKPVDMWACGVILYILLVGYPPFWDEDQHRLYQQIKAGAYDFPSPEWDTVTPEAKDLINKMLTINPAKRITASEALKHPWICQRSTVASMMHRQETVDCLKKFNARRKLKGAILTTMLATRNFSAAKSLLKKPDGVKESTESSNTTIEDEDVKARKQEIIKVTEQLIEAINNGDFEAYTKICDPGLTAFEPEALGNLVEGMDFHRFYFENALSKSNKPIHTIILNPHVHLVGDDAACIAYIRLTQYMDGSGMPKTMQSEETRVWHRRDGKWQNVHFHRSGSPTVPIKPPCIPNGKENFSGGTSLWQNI
Assay [6] has as its target T1, Testis-specific serine/threonine-protein kinase 1 (Homo sapiens) (UniProt Q9BXA7).
T1 sequence (whole entry): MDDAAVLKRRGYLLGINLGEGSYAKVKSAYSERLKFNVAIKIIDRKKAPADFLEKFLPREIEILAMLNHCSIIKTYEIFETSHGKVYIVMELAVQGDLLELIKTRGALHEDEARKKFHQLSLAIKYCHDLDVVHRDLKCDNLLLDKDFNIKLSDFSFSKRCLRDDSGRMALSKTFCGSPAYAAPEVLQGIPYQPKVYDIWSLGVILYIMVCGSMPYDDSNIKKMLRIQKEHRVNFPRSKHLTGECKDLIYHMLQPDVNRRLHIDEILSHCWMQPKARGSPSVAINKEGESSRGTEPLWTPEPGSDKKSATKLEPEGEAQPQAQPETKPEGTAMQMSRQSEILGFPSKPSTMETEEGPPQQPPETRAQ
Briefly: Inhibition of human full length TSSK1 expressed in baculovirus assessed as substrate phosphorylation using fluorescence-labelled peptides as substrate at 95 uM after 90 mins by microfluidic peptide phosphorylation assay.

In assay [7] the target is T2, Serine/threonine-protein kinase Chk1 (Homo sapiens) (UniProt O14757).
T2 sequence (whole entry): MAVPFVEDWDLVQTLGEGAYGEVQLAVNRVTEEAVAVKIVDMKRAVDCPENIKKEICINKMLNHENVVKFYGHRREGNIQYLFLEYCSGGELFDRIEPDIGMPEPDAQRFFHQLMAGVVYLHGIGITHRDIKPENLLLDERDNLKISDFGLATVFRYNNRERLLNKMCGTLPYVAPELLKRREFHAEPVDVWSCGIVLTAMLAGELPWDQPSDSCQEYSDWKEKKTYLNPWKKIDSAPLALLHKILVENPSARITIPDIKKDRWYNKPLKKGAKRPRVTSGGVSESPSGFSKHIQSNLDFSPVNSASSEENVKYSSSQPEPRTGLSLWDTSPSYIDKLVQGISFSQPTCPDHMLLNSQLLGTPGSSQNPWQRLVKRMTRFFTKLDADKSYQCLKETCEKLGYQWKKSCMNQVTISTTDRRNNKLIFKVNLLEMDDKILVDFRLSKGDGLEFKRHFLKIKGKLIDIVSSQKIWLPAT
The conditions noted are these: 9 uM.
Description: Inhibition of human full length CHK1 expressed in baculovirus assessed as substrate phosphorylation using fluorescence-labelled peptides as substrate at 9 uM after 90 mins by microfluidic peptide phosphorylation assay

The target in assay [8] is T3, Mitogen-activated protein kinase 13 (Homo sapiens) (UniProt O15264).
T3 sequence (whole entry): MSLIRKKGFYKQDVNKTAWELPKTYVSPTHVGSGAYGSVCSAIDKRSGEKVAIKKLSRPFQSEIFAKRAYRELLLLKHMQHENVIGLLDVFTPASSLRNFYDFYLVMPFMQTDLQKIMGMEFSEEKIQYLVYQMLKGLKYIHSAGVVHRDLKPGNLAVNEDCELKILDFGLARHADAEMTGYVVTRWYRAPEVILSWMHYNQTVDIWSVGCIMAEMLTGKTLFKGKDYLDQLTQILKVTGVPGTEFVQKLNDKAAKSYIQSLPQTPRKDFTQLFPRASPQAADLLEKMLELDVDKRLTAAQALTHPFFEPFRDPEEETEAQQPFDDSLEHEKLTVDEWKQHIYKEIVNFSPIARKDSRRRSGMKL
As to the kind of experiment: Inhibition of human full length p38 delta expressed in Escherichia coli cell assessed as substrate phosphorylation using fluorescence-labelled peptides as substrate at 9 uM after 90 mins by microfluidic peptide phosphorylation assay.

For assay [9], the target named is Ribosomal protein S6 kinase alpha-3 (Homo sapiens) (UniProt P51812). As to the kind of experiment: Inhibition of human full length RSK2 expressed in baculovirus assessed as substrate phosphorylation using fluorescence-labelled peptides as substrate at 8 uM after 90 mins by microfluidic peptide phosphorylation assay.
Chain of Ribosomal protein S6 kinase alpha-3 (Homo sapiens) (P51812 whole entry, the tested form may be a part): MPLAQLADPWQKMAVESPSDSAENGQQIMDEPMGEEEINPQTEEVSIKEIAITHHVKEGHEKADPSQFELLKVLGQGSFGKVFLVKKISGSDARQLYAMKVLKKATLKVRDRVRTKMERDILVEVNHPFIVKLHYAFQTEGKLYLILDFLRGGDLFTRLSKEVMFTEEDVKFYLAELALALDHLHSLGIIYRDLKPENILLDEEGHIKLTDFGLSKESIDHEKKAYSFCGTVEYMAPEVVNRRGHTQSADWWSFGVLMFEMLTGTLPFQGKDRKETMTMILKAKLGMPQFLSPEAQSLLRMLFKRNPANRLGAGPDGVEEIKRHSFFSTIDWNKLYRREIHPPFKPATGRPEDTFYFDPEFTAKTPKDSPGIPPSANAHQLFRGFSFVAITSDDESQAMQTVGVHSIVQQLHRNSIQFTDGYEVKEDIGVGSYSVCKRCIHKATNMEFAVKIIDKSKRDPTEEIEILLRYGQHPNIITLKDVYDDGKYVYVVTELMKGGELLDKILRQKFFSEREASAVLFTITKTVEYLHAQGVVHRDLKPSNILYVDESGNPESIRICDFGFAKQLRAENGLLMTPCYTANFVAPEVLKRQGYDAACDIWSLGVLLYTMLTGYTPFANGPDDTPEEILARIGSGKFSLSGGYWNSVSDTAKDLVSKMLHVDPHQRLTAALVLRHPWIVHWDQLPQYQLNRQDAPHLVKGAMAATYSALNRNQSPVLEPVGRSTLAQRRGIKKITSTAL
Assay [10] has as its target Insulin-like growth factor 1 receptor (Homo sapiens) (UniProt P08069). As to the kind of experiment: Inhibition of human IGF1R catalytic domain expressed in baculovirus assessed as substrate phosphorylation using fluorescence-labelled peptides as substrate at 8 uM after 90 mins by microfluidic peptide phosphorylation assay.
The target in assay [11] is Ribosomal protein S6 kinase alpha-1 (Homo sapiens) (UniProt Q15418). As to the kind of experiment: Inhibition of human full length RSK1 expressed in baculovirus assessed as substrate phosphorylation using fluorescence-labelled peptides as substrate at […] after 90 mins by microfluidic peptide phosphorylation assay.
Chain of Ribosomal protein S6 kinase alpha-1 (Homo sapiens) (Q15418 whole entry): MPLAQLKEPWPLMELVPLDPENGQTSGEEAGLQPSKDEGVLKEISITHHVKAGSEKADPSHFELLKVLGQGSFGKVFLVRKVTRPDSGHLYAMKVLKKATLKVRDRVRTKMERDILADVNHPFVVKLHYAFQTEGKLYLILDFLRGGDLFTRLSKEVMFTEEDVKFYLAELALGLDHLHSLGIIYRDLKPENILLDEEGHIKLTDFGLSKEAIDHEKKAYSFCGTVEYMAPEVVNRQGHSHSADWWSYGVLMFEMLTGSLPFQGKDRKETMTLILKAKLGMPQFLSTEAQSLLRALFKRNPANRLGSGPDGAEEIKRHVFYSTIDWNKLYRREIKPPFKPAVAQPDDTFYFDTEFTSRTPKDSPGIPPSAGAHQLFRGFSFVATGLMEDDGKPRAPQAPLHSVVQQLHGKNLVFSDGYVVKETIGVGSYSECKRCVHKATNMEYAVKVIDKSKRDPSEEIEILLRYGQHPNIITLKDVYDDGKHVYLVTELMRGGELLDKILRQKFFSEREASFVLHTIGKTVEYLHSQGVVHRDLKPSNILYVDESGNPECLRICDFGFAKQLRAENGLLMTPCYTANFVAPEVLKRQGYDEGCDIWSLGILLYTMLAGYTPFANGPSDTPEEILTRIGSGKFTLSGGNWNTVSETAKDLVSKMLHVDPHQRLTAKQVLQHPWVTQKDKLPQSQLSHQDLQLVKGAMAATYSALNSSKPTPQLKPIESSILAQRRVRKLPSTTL
Assay [12] has as its target Serine/threonine-protein kinase Chk2 (Homo sapiens) (UniProt O96017). Briefly: Inhibition of human full length CHK2 expressed in baculovirus assessed as substrate phosphorylation using fluorescence-labelled peptides as substrate at 1000 uM after 90 mins by microfluidic peptide phosphorylation assay.
The target of assay [13] is Mitogen-activated protein kinase 14 (Homo sapiens) (UniProt Q16539). As to the kind of experiment: Inhibition of human truncated p38 alpha expressed in Escherichia coli cell assessed as substrate phosphorylation using fluorescence-labelled peptides as substrate at 0.06 uM after 90 mins by microfluidic peptide phosphorylation assay.
Chain of Mitogen-activated protein kinase 14 (Homo sapiens) (Q16539 whole entry, the tested form may be a part): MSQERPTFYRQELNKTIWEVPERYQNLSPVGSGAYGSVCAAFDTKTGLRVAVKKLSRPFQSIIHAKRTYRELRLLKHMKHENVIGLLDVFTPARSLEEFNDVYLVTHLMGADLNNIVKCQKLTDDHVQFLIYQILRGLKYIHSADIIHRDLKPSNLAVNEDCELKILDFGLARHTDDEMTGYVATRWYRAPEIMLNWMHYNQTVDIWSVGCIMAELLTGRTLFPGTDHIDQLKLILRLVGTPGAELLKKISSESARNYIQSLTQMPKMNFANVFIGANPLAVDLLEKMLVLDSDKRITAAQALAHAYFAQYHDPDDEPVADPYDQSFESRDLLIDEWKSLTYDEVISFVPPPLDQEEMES
In assay [14] the test system is Tyrosine-protein kinase ABL1 (Homo sapiens), P00519 [H396P]. As to the kind of experiment: Inhibition of human truncated ABL H396P mutant expressed in baculovirus assessed as substrate phosphorylation using fluorescence-labelled peptides as substrate at 0.06 uM after 90 mins by microfluidic peptide phosphorylation assay.
Assay [15] deals with Protein kinase C delta type (Homo sapiens) (UniProt Q05655). Briefly: Inhibition of human truncated PKC delta expressed in baculovirus assessed as substrate phosphorylation using fluorescence-labelled peptides as substrate at 0.06 uM after 90 mins by microfluidic peptide phosphorylation assay.
Chain of Protein kinase C delta type (Homo sapiens) (Q05655 whole entry, looked up, the tested form may be a part): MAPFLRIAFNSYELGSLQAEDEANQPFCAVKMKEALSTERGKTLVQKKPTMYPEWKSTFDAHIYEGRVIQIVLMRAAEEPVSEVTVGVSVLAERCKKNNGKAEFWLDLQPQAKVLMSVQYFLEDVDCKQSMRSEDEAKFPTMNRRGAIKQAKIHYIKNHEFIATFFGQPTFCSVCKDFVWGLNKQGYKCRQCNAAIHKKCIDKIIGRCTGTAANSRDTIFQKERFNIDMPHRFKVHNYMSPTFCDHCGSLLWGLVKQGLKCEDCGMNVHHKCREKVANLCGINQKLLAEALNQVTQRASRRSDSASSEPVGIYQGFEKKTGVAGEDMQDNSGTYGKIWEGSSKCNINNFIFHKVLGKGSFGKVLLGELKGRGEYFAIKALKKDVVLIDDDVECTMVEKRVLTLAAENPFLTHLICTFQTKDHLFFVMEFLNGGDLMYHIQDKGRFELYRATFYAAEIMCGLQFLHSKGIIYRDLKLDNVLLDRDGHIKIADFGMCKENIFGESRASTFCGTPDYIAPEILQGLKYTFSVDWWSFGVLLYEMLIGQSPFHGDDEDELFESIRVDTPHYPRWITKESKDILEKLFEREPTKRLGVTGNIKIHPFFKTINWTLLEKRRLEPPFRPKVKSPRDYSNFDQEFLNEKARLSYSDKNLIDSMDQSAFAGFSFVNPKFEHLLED
The target of assay [16] is Protein kinase C gamma type (Homo sapiens) (UniProt P05129). Briefly: Inhibition of human truncated PKC gamma expressed in baculovirus assessed as substrate phosphorylation using fluorescence-labelled peptides as substrate at 2 uM after 90 mins by microfluidic peptide phosphorylation assay.
Assay [17] has as its target Vascular endothelial growth factor receptor 2 (Homo sapiens) (UniProt P35968). As to the kind of experiment: Inhibition of human KDR cytoplasmic domain expressed in baculovirus assessed as substrate phosphorylation using fluorescence-labelled peptides as substrate at 70 uM after 90 mins by microfluidic peptide phosphorylation assay.

A word on the inhibition: it is how much of the control response was suppressed.

Chain of Serine/threonine-protein kinase Chk2 (Homo sapiens) (O96017 whole entry, the tested form may be a part): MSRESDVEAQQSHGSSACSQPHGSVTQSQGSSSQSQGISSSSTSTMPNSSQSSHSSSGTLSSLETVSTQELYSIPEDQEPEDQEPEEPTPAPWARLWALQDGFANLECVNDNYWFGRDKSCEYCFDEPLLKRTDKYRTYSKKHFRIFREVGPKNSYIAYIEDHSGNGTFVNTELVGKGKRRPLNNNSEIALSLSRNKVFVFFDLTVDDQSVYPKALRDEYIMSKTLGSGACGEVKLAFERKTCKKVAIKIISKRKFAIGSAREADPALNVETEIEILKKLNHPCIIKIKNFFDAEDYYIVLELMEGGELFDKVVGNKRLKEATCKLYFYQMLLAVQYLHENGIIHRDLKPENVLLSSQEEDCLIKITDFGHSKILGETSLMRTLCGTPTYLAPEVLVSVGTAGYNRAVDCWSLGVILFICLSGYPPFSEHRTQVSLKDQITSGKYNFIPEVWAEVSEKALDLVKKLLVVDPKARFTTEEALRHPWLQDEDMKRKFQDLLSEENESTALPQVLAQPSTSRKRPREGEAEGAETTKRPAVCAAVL

With `Clc1ccc(C2(c3ccc(-c4ncnc5[nH]cnc45)cc3)CCNCC2)cc1`, the inhibition in [1] was 7.5%; in [2] it was 94%; in assay [3], 80%.

Turning to `c1nc(N2CCOCC2)c2nc[nH]c2n1`, the inhibition in assay [4] amounted to 75.5%; in assay [5], 63.5%.

For the compound `NCCc1ccc(-c2ncnc3[nH]cnc23)cc1`, in assay [6], the inhibition was 89%.

As for `NCC1CN(c2ncnc3[nH]c4cnccc4c23)CCO1` (configuration not stated), the inhibition in [7] turned out to be 91%; in [8], 2%.

With `NCC1CCN(c2ncnc3[nH]ccc23)CC1`, the inhibition in assay [9] was 32%; in assay [10], 30%.

For the compound `COC(=O)c1cnc(Nc2cnc(C#N)cn2)cc1NCC1CCNCC1`, in [11], the inhibition came out at 37%.

For the compound `c1cnc2[nH]ccc2c1`, the inhibition in assay [12] was 74%.

In the case of `NC1(Cc2ccc(Cl)cc2)CCN(c2ncnc3[nH]ccc23)CC1`, the inhibition came out at 0% in [13], 0.5% in assay [14] and 2% in [15].

As for `NC1CCN(c2ncnc3[nH]ccc23)CC1`, the inhibition in assay [16] is 57.5%.

Consider `CNCc1ccc(-c2ncnc3[nH]cnc23)cc1`, for which, in assay [17], the inhibition stood at 64%.
